Legend:
Type in all cases: in vivo
[1] = test system: Puccinia recondite f sp. tritici; experiment: Test B: wheat leaf rust, test suspension sprayed on wheat seedlings, disease rating; details: 200 ppm test suspension; for pest or weed control at 200 ppm: Puccinia, 192 h;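 for all read-outs here: 200 ppm unless marked * meaning 40 ppm or ** meaning 10 ppm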
Septoria tritici = experiment: Test E: wheat leaf blotch, test suspension sprayed on wheat seedlings, disease rating; details: 200 ppm test suspension; for pest or weed control at 200 ppm: Zymoseptoria tritici, 504 h;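 for all read-outs here: 200 ppm unless marked * meaning 40 ppm or ** meaning 10 ppm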
[2] = test system: Erysiphe graminis f. sp. tritici; experiment: Test A: wheat powdery mildew, test suspension sprayed on wheat seedlings, disease rating; details: 200 ppm test suspension, 100 = 100% disease control, 0 = no control; for pest or weed control at 200 ppm: Blumeria graminis, 192 h
Phytophthora infestans = experiment: whole plant or invertebrate; details: for Test J disease control rating: 200 ppm test suspension; for pest or weed control at 200 ppm: Phytophthora infestans, in Solanum lycopersicum, 120 h, read-out: Test J disease control rating
Fusarium graminearum = experiment: whole plant or invertebrate; details: for Test C disease control rating: 200 ppm test suspension; for pest or weed control at 200 ppm: Fusarium graminearum, in Triticum aestivum, 192 h, read-out: Test C disease control rating
Pythium aphanidermatum = experiment: Test L: bluegrass pythium blight, test suspension sprayed on bluegrass seedlings, disease rating; details: 200 ppm test suspension; for pest or weed control at 200 ppm: Pythium aphanidermatum, 120 h;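 for all read-outs here: 200 ppm unless marked * meaning 40 ppm or ** meaning 10 ppm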
Septoria nodorum = experiment: Test D: wheat glume blotch, test suspension sprayed on wheat seedlings, disease rating; details: 200 ppm test suspension; for pest or weed control at 200 ppm: Parastagonospora nodorum, 216 h

Structure (SMILES) | Test B disease control rating [1] | Test E disease control rating (Septoria tritici) | Test A disease control rating [2] | Test J disease control rating (Phytophthora infestans) | Test C disease control rating (Fusarium graminearum) | Test L disease control rating (Pythium aphanidermatum) | Test D disease control rating (Septoria nodorum) | pest or weed control at 200 ppm [1] | pest or weed control at 200 ppm (Septoria tritici) | pest or weed control at 200 ppm [2] | pest or weed control at 200 ppm (Phytophthora infestans) | pest or weed control at 200 ppm (Fusarium graminearum) | pest or weed control at 200 ppm (Pythium aphanidermatum) | pest or weed control at 200 ppm (Septoria nodorum)
CC(C)Nc1nccc(-c2c(-c3ccccc3F)nn3c2CCC3)n1 [compound 97] | 55% | 61% | 0% | 96% | 100% | 100% | 82% | – | – | – | – | – | – | –
Cc1ccccc1-c1nn2c(c1-c1ccnc(NC(C)CO)n1)CCCC2 (centres unmarked) [compound 46] | 74% | 50% | 0% | 97% | 0% | 100% | 0% | – | – | – | – | – | – | –
CC(C)Nc1nccc(-c2c(-c3ccc(F)cc3)nn3c2CCCC3)n1.Cl [compound 69] | 97% | 100% | 59% | 97% | 100% | 100% | 99% | – | – | – | – | – | – | –
Fc1ccc(-c2nn3c(c2-c2ccnc(NCC4CCCO4)n2)CCCC3)cc1 (centres unmarked) [compound 34] | 100% | 94% | 96% | 91% | 98% | 100% | 100% | – | – | – | – | – | – | –
Fc1ccc(-c2nn3c(c2-c2ccnc(N4CCC4)n2)CCCC3)cc1 [compound 82] | 91% | 97% | 81% | 99% | 96% | 0% | 60% | – | – | – | – | – | – | –
CC(C)Nc1nccc(-c2c(-c3ccsc3)nn3c2CCCC3)n1 [compound 43] | 92% | 96% | 0% | 97% | 98% | 100% | 90% | – | – | – | – | – | – | –
CC(CO)Nc1nccc(-c2c(-c3ccsc3)nn3c2COCC3)n1 (centres unmarked) [compound 124] | 86% | 54% | 0% | 66% | 98% | 99% | 60% | – | – | – | – | – | – | –
COCC(C)Nc1nccc(-c2c(-c3ccccc3F)nn3c2CCC3)n1 (centres unmarked) [compound 96] | 19% | 62% | 0% | 98% | 96% | 83% | 0% | – | – | – | – | – | – | –
Cc1cc(-c2nn3c(c2-c2ccnc(NC(C)C)n2)COCC3)ccc1F [compound 120] | 90% | 95% | 86% | 88% | 100% | 98% | 100% | – | – | – | – | – | – | –
CC(C)(CO)Nc1nccc(-c2c(-c3ccc(F)cc3)nn3c2CCCC3)n1 [compound 30] | 91% | 93% | 0% | 47% | 92% | 0% | 69% | – | – | – | – | – | – | –
CC(C)Nc1nccc(-c2c(-c3ccc(F)cc3)nn3c2CS(=O)(=O)CC3)n1 [Compound 114, 4-[2-(4-fluorophenyl)-6,7-dihydro-5,5-dioxido-4H-pyrazolo[5,1-c][1,4]thiazin-3-yl]-N-(1-methylethyl)-2-pyrimidinamine] | – | – | – | – | – | – | – | 100% | 86% | 57% | 100% | 94% | 100% | 73%
CC(C)Nc1nccc(-c2c(-c3ccc(F)cc3F)nn3c2COCC3)n1 [compound 125] | 86% | 88% | 20% | 100% | 100% | 100% | 89% | – | – | – | – | – | – | –
CC(C)CNc1nccc(-c2c(-c3ccccc3F)nn3c2CCC3)n1 [compound 98] | 74% | 95% | 0% | 88% | 97% | 99% | 82% | – | – | – | – | – | – | –
CC(COC(=O)c1cccnc1)Nc1nccc(-c2c(-c3ccc(F)cc3)nn3c2CCCC3)n1 (centres unmarked) [compound 68] | 98% | 93% | 0% | 95% | 99% | 100% | 95% | – | – | – | – | – | – | –
CC(=O)OCC(C)Nc1nccc(-c2c(-c3ccc(F)cc3)nn3c2CCCC3)n1 (centres unmarked) [compound 67] | 100% | 93% | 0% | 99% | 100% | 100% | 78% | – | – | – | – | – | – | –
COCC(C)Nc1nccc(-c2c(-c3cccc(F)c3)nn3c2CCC3)n1 (centres unmarked) [compound 100] | 89% | 92% | 0% | 98% | 99% | 100% | 90% | – | – | – | – | – | – | –
CC(CO)Nc1nccc(-c2c(-c3ccc(F)cc3)nn3c2CSCC3)n1 (centres unmarked) [compound 111] | 95% | 31% | 21% | 80% | 95% | 100% | 64% | – | – | – | – | – | – | –
CC(=O)Nc1nccc(-c2c(-c3ccc(F)cc3)nn3c2CCCC3)n1 [Compound 52, N-[4-[2-(4-fluorophenyl)-4,5,6,7-tetrahydropyrazolo[1,5-a]pyridin-3-yl]-2-pyrimidinyl]acetamide] | – | – | – | – | – | – | – | 100% | 98% | 0% | 95% | 99% | 100% | 97%
Cc1cc(-c2nn3c(c2-c2ccnc(NC(C)CO)n2)COCC3)ccc1F (centres unmarked) [compound 123] | 90% | 31% | 0% | 91% | 99% | 100% | 0% | – | – | – | – | – | – | –
C[C@H](CO)Nc1nccc(-c2c(-c3ccc(F)cc3)nn3c2CCOC3)n1 [compound 113] | 97% | 91% | 0% | 96% | 99% | 100% | 78% | – | – | – | – | – | – | –
Fc1cc(F)cc(-c2nn3c(c2-c2ccnc(NC4CC4)n2)CCC3)c1 [compound 104] | 0% | 88% | 0% | 88% | 55% | 91% | 0% | – | – | – | – | – | – | –
CCC(C)Nc1nccc(-c2c(-c3cccc(F)c3)nn3c2CCC3)n1 (centres unmarked) [compound 101] | 89% | 94% | 0% | 57% | 99% | 91% | 92% | – | – | – | – | – | – | –
C[Si](C)(C)CNc1nccc(-c2c(-c3ccc(F)cc3)nn3c2CCCC3)n1 [compound 35] | 99% | 100% | 0% | 67% | 99% | 0% | 99% | – | – | – | – | – | – | –
CC1CN1c1nccc(-c2c(-c3ccc(F)cc3)nn3c2CCCC3)n1 (centres unmarked) [compound 81] | 98% | 100% | 0% | 99% | 98% | 95% | 87% | – | – | – | – | – | – | –
CONc1nccc(-c2c(-c3ccc(F)cc3)nn3c2CCCC3)n1 [compound 65] | 65% | 98% | 28% | 43% | 87% | 99% | 31% | – | – | – | – | – | – | –
Fc1ccc(-c2nn3c(c2-c2ccnc(Oc4ccc(-n5cccc5)cc4)n2)CCCC3)cc1 [Compound 106] | 94% | 72% | 0% | 9% | 92% | 0% | 69% | – | – | – | – | – | – | –
